Source: PubChem BioAssay AID330 (DTP/NCI, 2004)
Where “and” joins values, the source holds several entries; their conditions need not be identical. Identical values can stand only once. Inconclusive results and toxic doses are left out.

Tested on: P388 leukemia ip, CD2F1 mice, survival T/C
Test: NCI In Vivo Anticancer Drug Screen. Data for tumor model P388 Leukemia (intraperitoneal) in CD2F1 (CDF1) mice
Details: endpoint: median survival time, higher = longer survival
Outline: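 Mice carrying the transplanted tumor received test compound or vehicle. Survival was recorded in each group, and the value is the treated-group measurement divided by that of the vehicle-treated control group.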

[1] = dose: 100.0 mg/kg/injection, schedule: Q01DX001 (ip), vehicle: Klucel (hydroxypropylcellulose) (HPC)
[2] = dose: 200.0 mg/kg/injection, schedule: Q01DX001 (ip), vehicle: Klucel (hydroxypropylcellulose) (HPC)
[3] = dose: 400.0 mg/kg/injection, schedule: Q01DX001 (ip), vehicle: Klucel (hydroxypropylcellulose) (HPC)
[4] = dose: 50.0 mg/kg/injection, schedule: Q01DX005 (ip), vehicle: saline
[5] = dose: 100.0 mg/kg/injection, schedule: Q01DX005 (ip), vehicle: saline
[6] = dose: 200.0 mg/kg/injection, schedule: Q01DX005 (ip), vehicle: saline
[7] = dose: 100.0 mg/kg/injection, schedule: Q04DX002 (ip), vehicle: saline with Tween-80
[8] = dose: 200.0 mg/kg/injection, schedule: Q04DX002 (ip), vehicle: saline with Tween-80
[9] = dose: 400.0 mg/kg/injection, schedule: Q04DX002 (ip), vehicle: saline with Tween-80
[10] = dose: 50.0 mg/kg/injection, schedule: Q01DX009 (ip), vehicle: saline
[11] = dose: 50.0 mg/kg/injection, schedule: Q01DX005 (ip), vehicle: Klucel (hydroxypropylcellulose) (HPC)
[12] = dose: 100.0 mg/kg/injection, schedule: Q01DX005 (ip), vehicle: Klucel (hydroxypropylcellulose) (HPC)
[13] = dose: 200.0 mg/kg/injection, schedule: Q01DX005 (ip), vehicle: Klucel (hydroxypropylcellulose) (HPC)
[14] = dose: 50.0 mg/kg/injection, schedule: Q01DX009 (ip), vehicle: Klucel (hydroxypropylcellulose) (HPC)
[15] = dose: 50.0 mg/kg/injection, schedule: Q01DX009 (ip), vehicle: saline with Tween-80
[16] = dose: 100.0 mg/kg/injection, schedule: Q01DX009 (ip), vehicle: saline with Tween-80
[17] = dose: 200.0 mg/kg/injection, schedule: Q01DX009 (ip), vehicle: saline with Tween-80

c1ccc(-c2cn3c(n2)SCC3)cc1 was tested, and the T/C [1] was 106 % of control, the T/C [2] was 106 % of control and the T/C [3] was 111 % of control.

In the case of N/C=N/OCc1ccccc1, the T/C [4] is reported as 101 % of control, the T/C [5] is reported as 104 % of control and the T/C [6] is reported as 105 % of control.

In the case of COc1c(O)c2c(c3cc(C(=O)N4CCc5c4c(O)c(OC)c4[nH]c(C(=O)N6CC7CC78C6=CC(=O)c6[nH]cc(C)c68)cc54)[nH]c13)CCN2C(N)=O (stereo not given), the T/C (dose: 0.01 mg/kg/injection, schedule: Q04DX003 (ip), vehicle: other) is reported as 190 % of control, the T/C (dose: 0.03 mg/kg/injection, schedule: Q04DX003 (ip), vehicle: other) is reported as 190 % of control and 211 % of control and the T/C (dose: 0.04 mg/kg/injection, schedule: Q04DX003 (ip), vehicle: DMSO) is reported as 150 % of control. The T/C (dose: 0.1 mg/kg/injection, schedule: Q04DX003 (ip), vehicle: DMSO) was 166 % of control, the T/C (dose: 0.1 mg/kg/injection, schedule: Q04DX003 (ip), vehicle: other) was 118 % of control and 98 % of control and the T/C (dose: 2.6 micrograms/kg/injection, schedule: Q01DX009 (ip), vehicle: other) was 120 % of control. The T/C (dose: 4.0 micrograms/kg/injection, schedule: Q01DX009 (ip), vehicle: other) was 119 % of control, the T/C (dose: 10.0 micrograms/kg/injection, schedule: Q04DX003 (ip), vehicle: other) was 163 % of control and the T/C (dose: 13.0 micrograms/kg/injection, schedule: Q01DX009 (ip), vehicle: DMSO) was 94 % of control. For the same compound, the T/C (dose: 13.0 micrograms/kg/injection, schedule: Q04DX003 (ip), vehicle: other) was 124 % of control, the T/C (dose: 20.0 micrograms/kg/injection, schedule: Q04DX003 (ip), vehicle: other) was 120 % of control and the T/C (dose: 21.6 micrograms/kg/injection, schedule: Q01DX009 (ip), vehicle: DMSO) was 95 % of control. The T/C (dose: 30.0 micrograms/kg/injection, schedule: Q04DX003 (ip), vehicle: other) was 181 % of control, the T/C (dose: 36.0 micrograms/kg/injection, schedule: Q01DX009 (ip), vehicle: DMSO) was 98 % of control and the T/C (dose: 60.0 micrograms/kg/injection, schedule: Q01DX009 (ip), vehicle: DMSO) was 93 % of control. For the same compound, the T/C (dose: 64.8 micrograms/kg/injection, schedule: Q04DX003 (ip), vehicle: DMSO) was 153 % of control, the T/C (dose: 64.8 micrograms/kg/injection, schedule: Q04DX003 (ip), vehicle: saline) was 156 % of control and the T/C (dose: 88.5 micrograms/kg/injection, schedule: Q01DX001 (ip), vehicle: other) was 153 % of control. The T/C (dose: 100.0 micrograms/kg/injection, schedule: Q01DX009 (ip), vehicle: DMSO) was 95 % of control, the T/C (dose: 100.0 micrograms/kg/injection, schedule: Q04DX003 (ip), vehicle: other) was 93 % of control and the T/C (dose: 108.0 micrograms/kg/injection, schedule: Q04DX003 (ip), vehicle: DMSO) was 161 % of control. For the same compound, the T/C (dose: 133.0 micrograms/kg/injection, schedule: Q01DX001 (ip), vehicle: other) was 155 % of control, the T/C (dose: 180.0 micrograms/kg/injection, schedule: Q04DX003 (ip), vehicle: DMSO) was 170 % of control and the T/C (dose: 200.0 micrograms/kg/injection, schedule: Q01DX001 (ip), vehicle: other) was 162 % of control. The T/C (dose: 300.0 micrograms/kg/injection, schedule: Q04DX003 (ip), vehicle: saline) was 105 % of control and the T/C (dose: 450.0 micrograms/kg/injection, schedule: Q01DX001 (ip), vehicle: other) was 157 % of control.

CC(C)(C)P(c1ccccc1)C(C)(C)C was tested, and the T/C [7] was 103 % of control.

With O=C1c2ccccc2C(=O)C1(Br)c1ccc(Cl)cc1 the T/C [7] was 96 % of control, the T/C [8] was 101 % of control and the T/C [9] was 99 % of control.

With Cc1noc(N(C)C)c1C the T/C [10] was 102 % of control, the T/C (dose: 100.0 mg/kg/injection, schedule: Q01DX009 (ip), vehicle: saline) was 100 % of control and the T/C (dose: 200.0 mg/kg/injection, schedule: Q01DX009 (ip), vehicle: saline) was 108 % of control.

COc1ccc(/C=C/C2=CC(=O)CC(/C=C/c3ccc(OC)c(OC)c3)C2)cc1OC (stereo not given) was tested, and the T/C [1] was 89 % of control, the T/C [2] was 100 % of control and the T/C [3] was 97 % of control.

In the case of NS(=O)(=O)Oc1ccc(Cl)cc1C(=O)Oc1ccc(Cl)cc1, the T/C (dose: 60.0 mg/kg/injection, schedule: Q01DX005 (ip), vehicle: Klucel (hydroxypropylcellulose) (HPC)) is reported as 91 % of control, the T/C (dose: 120.0 mg/kg/injection, schedule: Q01DX005 (ip), vehicle: Klucel (hydroxypropylcellulose) (HPC)) is reported as 91 % of control and the T/C (dose: 240.0 mg/kg/injection, schedule: Q01DX005 (ip), vehicle: Klucel (hydroxypropylcellulose) (HPC)) is reported as 88 % of control.

With COc1ccc2c(c1OC)C(O)(Cc1ccccc1)OC2C1c2c(cc3c(c2OC)OCO3)CCN1C (stereo not given) the T/C [11] was 106 % of control, the T/C [12] was 104 % of control and the T/C [13] was 95 % of control.

In the case of O=C(Oc1ccc[nH]c1=O)c1cccc(Cl)c1, the T/C (dose: 25.0 mg/kg/injection, schedule: Q01DX009 (ip), vehicle: distilled water + Tween-80) is reported as 100 % of control, the T/C (dose: 50.0 mg/kg/injection, schedule: Q01DX009 (ip), vehicle: distilled water + Tween-80) is reported as 100 % of control and the T/C (dose: 100.0 mg/kg/injection, schedule: Q01DX009 (ip), vehicle: distilled water + Tween-80) is reported as 95 % of control. For the same compound, the T/C (dose: 200.0 mg/kg/injection, schedule: Q01DX009 (ip), vehicle: distilled water + Tween-80) was 99 % of control and the T/C (dose: 400.0 mg/kg/injection, schedule: Q01DX009 (ip), vehicle: distilled water + Tween-80) was 97 % of control.

In the case of Clc1nnn(-c2ccccc2)n1, the T/C (dose: 62.5 mg/kg/injection, schedule: Q04DX002 (ip), vehicle: saline with Tween-80) is reported as 101 % of control and the T/C (dose: 125.0 mg/kg/injection, schedule: Q04DX002 (ip), vehicle: saline with Tween-80) is reported as 100 % of control.

For CCc1[nH]c2ccccc2c1C(=O)c1cccnc1, the T/C (dose: 50.0 mg/kg/injection, schedule: Q04DX003 (ip), vehicle: Klucel (hydroxypropylcellulose) (HPC)) was 101 % of control, the T/C (dose: 100.0 mg/kg/injection, schedule: Q04DX003 (ip), vehicle: Klucel (hydroxypropylcellulose) (HPC)) was 97 % of control and the T/C (dose: 200.0 mg/kg/injection, schedule: Q04DX003 (ip), vehicle: Klucel (hydroxypropylcellulose) (HPC)) was 100 % of control.

With O=C(Nc1cccc(Cl)c1)N1CCNC1=S the T/C [14] was 102 % of control and the T/C (dose: 100.0 mg/kg/injection, schedule: Q01DX009 (ip), vehicle: Klucel (hydroxypropylcellulose) (HPC)) was 104 % of control.

With CCCCCCCCCCCCCCN1CCOCC1 the T/C (dose: 12.5 mg/kg/injection, schedule: Q01DX009 (ip), vehicle: saline) was 94 % of control, the T/C (dose: 25.0 mg/kg/injection, schedule: Q01DX009 (ip), vehicle: saline) was 100 % of control and the T/C [10] was 100 % of control and 98 % of control.

For CC(C)(C)NC=C(C#N)C#N, the T/C [15] was 86 % of control.

For CN(C)C(=S)S(=O)(=O)c1ccccc1, the T/C (dose: 12.5 mg/kg/injection, schedule: Q01DX009 (ip), vehicle: Klucel (hydroxypropylcellulose) (HPC)) was 123 % of control, the T/C (dose: 25.0 mg/kg/injection, schedule: Q01DX009 (ip), vehicle: Klucel (hydroxypropylcellulose) (HPC)) was 123 % of control and the T/C [14] was 123 % of control.

With N#CCc1c(-c2ccccc2)c(-c2ccccc2)c2n1CCC2 the T/C [11] was 98 % of control, the T/C [12] was 99 % of control and the T/C [13] was 96 % of control.

O=C(CCl)c1ccc(Cl)c(Cl)c1 was tested, and the T/C (dose: 100.0 mg/kg/injection, schedule: Q01DX001 (ip), vehicle: other) was 100 % of control and the T/C (dose: 200.0 mg/kg/injection, schedule: Q01DX001 (ip), vehicle: other) was 100 % of control.

For COC1OCC(N=[N+]=[N-])C(O)C1O (stereo not given), the T/C (dose: 25.0 mg/kg/injection, schedule: Q01DX005 (ip), vehicle: saline) was 98 % of control, the T/C [4] was 102 % of control and the T/C [5] was 100 % of control. For the same compound, the T/C [6] was 102 % of control.

With C=C1CC2(CCC3(C)C(CCC4C5CCC(=O)C5(C)CCC43)C2)OC1=O (stereo not given) the T/C [7] was 95 % of control, the T/C [8] was 93 % of control and the T/C [9] was 96 % of control.

For NC(C(=O)O)C(=O)c1ccccc1 (stereo not given), the T/C [16] was 100 % of control, the T/C [17] was 100 % of control and the T/C (dose: 400.0 mg/kg/injection, schedule: Q01DX009 (ip), vehicle: saline with Tween-80) was 118 % of control.

In the case of COc1ccccc1NC(CCN1CCCCC1)=NC(C)(C)C, the T/C [15] is reported as 111 % of control, the T/C [16] is reported as 106 % of control and the T/C [17] is reported as 104 % of control.
